According to ChEMBL document CHEMBL4699534, “Optimizing PEG-Extended Apelin Analogues as Cardioprotective Drug Leads: Importance of the KFRR Motif and Aromatic Head Group for Improved Physiological Activity” (J Med Chem, 2020):
Non-standard residues stand in square brackets, D forms with d. Residues, ends and D or L forms follow the SMILES beside them. *: point of attachment. CH3O(CH2CH2O)7C2H4CO = COCCOCCOCCOCCOCCOCCOCCOCCC(=O)*; PEG10 = NCCOCCOCCOCCOCCOCCOCCOCCOCCOCCOCCC(=O)O; Bpa = N[C@@H](Cc1ccc(C(=O)c2ccccc2)cc1)C(=O)O; Phe(4-Br) = N[C@@H](Cc1ccc(Br)cc1)C(=O)O; PEG7 = NCCOCCOCCOCCOCCOCCOCCOCCC(=O)O; Fmoc = O=C(OCC1c2ccccc2-c2ccccc21)*; NMeL = CN[C@@H](CC(C)C)C(=O)O; PEG4 = NCCOCCOCCOCCOCCC(=O)O; PEG3 = NCCOCCOCCOCCC(=O)O; Nle = CCCC[C@H](N)C(=O)O; X1 = COCCOCCOCCOCCC(=O)*; Aib = CC(C)(N)C(=O)O

Columns and labels:
Mus musculus = assay: Cardioprotective activity in C57BL/6 mouse assessed as reduction in mean arterial blood pressure at 1.4 uM/kg, iv measured after 15 mins relative to control; type: functional; settings: 0.25 h
[1] = Lipophilicity, log D of the compound in pH 7.4 PBS by LC/MS detection based shake flask assay; type: physicochemical
[2] = Half life in mouse plasma at 400 uM by HPLC analysis; type: ADME, cell-free
[3] = Protein binding in 55% human plasma at 100 uM incubated for 3 hrs by LC/MS detection based equilibrium dialysis; type: ADME, cell-free; settings: 55% plasma, read-out: PPB (converted)
Heart [4] = assay: Cardioprotective activity in mouse Langendorff heart perfusion and ischemia-reperfusion injury model assessed as left ventricle developed pressure at 1 uM dosed at start of reperfusion for 10 mins; type: functional
Apelin receptor [5] = target: T1, Apelin receptor (Rattus norvegicus, UniProt Q9JHG3); assay: Displacement of [125I]-pyr-1-apelin-13 from EGFP-tagged wild-type rat apelin receptor expressed in CHO cell membranes by gamma counting method; parameters: species or system Cell membrane
T1 sequence (Q9JHG3 whole entry): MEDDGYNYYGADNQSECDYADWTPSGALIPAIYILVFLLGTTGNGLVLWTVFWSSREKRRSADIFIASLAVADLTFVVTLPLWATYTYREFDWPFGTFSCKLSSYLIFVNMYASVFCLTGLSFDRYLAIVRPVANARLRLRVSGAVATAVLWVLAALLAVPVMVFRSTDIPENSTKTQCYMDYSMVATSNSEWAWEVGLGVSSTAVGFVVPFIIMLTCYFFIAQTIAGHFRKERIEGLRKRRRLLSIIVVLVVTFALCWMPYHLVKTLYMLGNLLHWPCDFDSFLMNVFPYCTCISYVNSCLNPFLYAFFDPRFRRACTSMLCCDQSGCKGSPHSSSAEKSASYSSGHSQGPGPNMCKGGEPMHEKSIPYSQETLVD

[6] = Half life in human plasma at 400 uM by HPLC analysis; type: ADME, cell-free
[7] = Protein binding in 55% mouse plasma at 100 uM incubated for 3 hrs by LC/MS detection based equilibrium dialysis; type: ADME, cell-free; settings: 55% plasma, read-out: PPB (converted)
Heart [8] = assay: Cardioprotective activity in mouse Langendorff heart perfusion and ischemia-reperfusion injury model assessed as maximum derivative of change in systolic blood pressure over time at 1 uM dosed at start of reperfusion for 10 mins; type: functional
Apelin receptor [9] = target: T2, Apelin receptor (Homo sapiens, UniProt P35414); assay: Activation of APJ receptor (unknown origin) expressed in Chem-5 cells assessed as stimulation of Ca2+ mobilization by Calcium 6-GF dye based fluorescence based assay; type: functional, cell-based
T2 sequence (P35414 whole entry): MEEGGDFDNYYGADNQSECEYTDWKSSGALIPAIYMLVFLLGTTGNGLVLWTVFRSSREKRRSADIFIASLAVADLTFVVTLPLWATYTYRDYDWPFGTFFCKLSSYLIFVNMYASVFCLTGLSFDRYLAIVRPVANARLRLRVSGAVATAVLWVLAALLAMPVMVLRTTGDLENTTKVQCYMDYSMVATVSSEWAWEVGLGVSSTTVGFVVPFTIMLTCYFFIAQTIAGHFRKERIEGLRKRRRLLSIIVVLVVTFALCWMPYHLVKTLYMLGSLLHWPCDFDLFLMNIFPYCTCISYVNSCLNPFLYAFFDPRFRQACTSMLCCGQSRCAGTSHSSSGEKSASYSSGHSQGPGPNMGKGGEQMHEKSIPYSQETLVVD

Row | SMILES | logD [1] | half-life at 400 µM [2] [h] | fraction unbound at 3 h, 100 µM [3] | IC50 (Apelin receptor [5]) [nM] | half-life at 400 µM [6] [h] | fraction unbound at 3 h, 100 µM [7] | EC50 (Apelin receptor [9]) [nM] | Activity (Mus musculus) [mmHg] | Activity (Heart [4]) [mmHg] | dP/dt max (Heart [8]) [mmHg/s]
1 | CCCC[C@H](NC(=O)[C@@H]1CCCN1C(=O)CNC(=O)[C@H](CCCCN)NC(=O)[C@H](Cc1c[nH]cn1)NC(=O)[C@H](CO)NC(=O)[C@H](CC(C)C)N(C)C(=O)[C@H](CCCNC(=N)N)NC(=O)[C@@H]1CCCN1C(=O)[C@H](CCCNC(=N)N)NC(=O)[C@H](CCC(N)=O)NC(=O)[C@H](CCCNC(=N)N)NC(=O)[C@H](CCCNC(=N)N)NC(=O)[C@H](Cc1ccccc1)NC(=O)[C@H](CCCCN)NC(=O)CCOCCOCCOCCOCCN)C(=O)NC(C)(C)C(=O)N[C@@H](Cc1ccc(Br)cc1)C(=O)O (H-[PEG4]KFRRQRPR[NMeL]SHKGP[Nle][Aib][Phe(4-Br)]-OH) | – | – | – | 6.31 | 2 | – | 7.76 | 24 | – | –
2 | CCCC[C@H](NC(=O)[C@@H]1CCCN1C(=O)CNC(=O)[C@H](CCCCN)NC(=O)[C@H](Cc1c[nH]cn1)NC(=O)[C@H](CO)NC(=O)[C@H](CC(C)C)N(C)C(=O)[C@H](CCCNC(=N)N)NC(=O)[C@@H]1CCCN1C(=O)[C@H](CCCNC(=N)N)NC(=O)[C@H](CCC(N)=O)NC(=O)[C@H](CCCNC(=N)N)NC(=O)[C@H](CCCNC(=N)N)NC(=O)[C@H](Cc1ccccc1)NC(=O)[C@H](CCCCN)NC(=O)CCOCCOCCOCCOC)C(=O)NC(C)(C)C(=O)N[C@@H](Cc1ccc(Br)cc1)C(=O)O (X1-KFRRQRPR[NMeL]SHKGP[Nle][Aib][Phe(4-Br)]-OH) | – | – | – | 3.31 | 2.8 | – | 53.7 | 32 | – | –
3 | CCCC[C@H](NC(=O)[C@@H]1CCCN1C(=O)CNC(=O)[C@H](CCCCN)NC(=O)[C@H](Cc1c[nH]cn1)NC(=O)[C@H](CO)NC(=O)[C@H](CC(C)C)N(C)C(=O)[C@H](CCCNC(=N)N)NC(=O)[C@@H]1CCCN1C(=O)[C@H](CCCNC(=N)N)NC(=O)[C@H](CCC(N)=O)NC(=O)[C@H](CCCNC(=N)N)NC(=O)[C@H](CCCNC(=N)N)NC(=O)[C@H](Cc1ccccc1)NC(=O)[C@H](CCCCN)NC(=O)CCOCCOCCOCCNC(=O)OCC1c2ccccc2-c2ccccc21)C(=O)NC(C)(C)C(=O)N[C@@H](Cc1ccc(Br)cc1)C(=O)O ({Fmoc-PEG3}-KFRRQRPR[NMeL]SHKGP[Nle][Aib][Phe(4-Br)]-OH) | – | – | – | 2.51 | 2 | – | 17 | 32 | – | –
4 | CCCC[C@H](NC(=O)[C@@H]1CCCN1C(=O)CNC(=O)[C@H](CCCCN)NC(=O)[C@H](Cc1c[nH]cn1)NC(=O)[C@H](CO)NC(=O)[C@H](CC(C)C)N(C)C(=O)[C@H](CCCNC(=N)N)NC(=O)[C@@H]1CCCN1C(=O)[C@H](CCCNC(=N)N)NC(=O)[C@H](CCC(N)=O)NC(=O)[C@H](CCCNC(=N)N)NC(=O)[C@H](CCCNC(=N)N)NC(=O)[C@H](Cc1ccccc1)NC(=O)[C@H](CCCCN)NC(=O)CCOCCOCCOCCOCCOCCOCCOCCOCCOCCOCCNC(=O)OCC1c2ccccc2-c2ccccc21)C(=O)NC(C)(C)C(=O)N[C@@H](Cc1ccc(Br)cc1)C(=O)O ({Fmoc-PEG10}-KFRRQRPR[NMeL]SHKGP[Nle][Aib][Phe(4-Br)]-OH) | – | – | – | 2.4 | 17.2 | – | 4.9 | 28 | – | –

Now those with a lower IC50 (Apelin receptor [5]), led by results:

Row | logD [1] | half-life at 400 µM [2] [h] | fraction unbound at 3 h, 100 µM [3] | IC50 (Apelin receptor [5]) [nM] | half-life at 400 µM [6] [h] | fraction unbound at 3 h, 100 µM [7] | EC50 (Apelin receptor [9]) [nM] | SMILES | Activity (Mus musculus) [mmHg] | Activity (Heart [4]) [mmHg] | dP/dt max (Heart [8]) [mmHg/s]
5 | -2.57 | 0.03 | 0.43 | 0.0501 | 0.02 | 0.49 | – | CSCC[C@H](NC(=O)[C@@H]1CCCN1C(=O)CNC(=O)[C@H](CCCCN)NC(=O)[C@H](Cc1c[nH]cn1)NC(=O)[C@H](CO)NC(=O)[C@H](CC(C)C)NC(=O)[C@H](CCCNC(=N)N)NC(=O)[C@@H]1CCCN1C(=O)[C@H](CCCNC(=N)N)NC(=O)[C@H](CCC(N)=O)NC(=O)[C@H](CCCNC(=N)N)NC(=O)[C@H](CCCNC(=N)N)NC(=O)[C@H](Cc1ccccc1)NC(=O)[C@@H](N)CCCCN)C(=O)N1CCCC1C(=O)N[C@@H](Cc1ccccc1)C(=O)O (some centres undefined) | 17 | 30 | 1020
6 | -2.01 | 0.9 | 0.48 | 0.603 | 1.2 | 0.45 | – | CCCC[C@H](NC(=O)[C@@H]1CCCN1C(=O)CNC(=O)[C@H](CCCCN)NC(=O)[C@H](Cc1c[nH]cn1)NC(=O)[C@H](CO)NC(=O)[C@H](CC(C)C)N(C)C(=O)[C@H](CCCNC(=N)N)NC(=O)[C@@H]1CCCN1C(=O)[C@H](CCCNC(=N)N)NC(=O)[C@H](CCC(N)=O)NC(=O)[C@H](CCCNC(=N)N)NC(=O)[C@H](CCCNC(=N)N)NC(=O)[C@H](Cc1ccccc1)NC(=O)[C@@H](N)CCCCN)C(=O)NC(C)(C)C(=O)N[C@@H](Cc1ccc(Br)cc1)C(=O)O (H-KFRRQRPR[NMeL]SHKGP[Nle][Aib][Phe(4-Br)]-OH) | 30 | 25 | 778
7 | – | – | – | 1.29 | 8.2 | – | 89.1 | CCCC[C@H](NC(=O)[C@@H]1CCCN1C(=O)CNC(=O)[C@H](CCCCN)NC(=O)[C@H](Cc1c[nH]cn1)NC(=O)[C@H](CO)NC(=O)[C@H](CC(C)C)N(C)C(=O)[C@H](CCCNC(=N)N)NC(=O)[C@@H]1CCCN1C(=O)[C@H](CCCNC(=N)N)NC(=O)[C@H](CCC(N)=O)NC(=O)[C@H](CCCNC(=N)N)NC(=O)[C@H](CCCNC(=N)N)NC(=O)[C@H](Cc1ccccc1)NC(=O)[C@H](CCCCN)NC(=O)CCOCCOCCOCCOCCOCCOCCOCCNC(=O)[C@@H](N)Cc1ccc(C(=O)c2ccccc2)cc1)C(=O)NC(C)(C)C(=O)N[C@@H](Cc1ccc(Br)cc1)C(=O)O (H-[Bpa][PEG7]KFRRQRPR[NMeL]SHKGP[Nle][Aib][Phe(4-Br)]-OH) | 43 | – | –
8 | -1.82 | – | 0.21 | 1.7 | 3 | 0.31 | 2.88 | CCCC[C@H](NC(=O)[C@@H]1CCCN1C(=O)CNC(=O)[C@H](CCCCN)NC(=O)[C@H](Cc1c[nH]cn1)NC(=O)[C@H](CO)NC(=O)[C@H](CC(C)C)N(C)C(=O)[C@H](CCCNC(=N)N)NC(=O)[C@@H]1CCCN1C(=O)[C@H](CCCNC(=N)N)NC(=O)[C@H](CCC(N)=O)NC(=O)[C@H](CCCNC(=N)N)NC(=O)[C@H](CCCNC(=N)N)NC(=O)[C@H](Cc1ccccc1)NC(=O)[C@H](CCCCN)NC(=O)CCOCCOCCOCCOCCOCCOCCOCCN)C(=O)NC(C)(C)C(=O)N[C@@H](Cc1ccc(Br)cc1)C(=O)O (H-[PEG7]KFRRQRPR[NMeL]SHKGP[Nle][Aib][Phe(4-Br)]-OH) | 35 | – | –
9 | – | – | – | 1.7 | 0.7 | – | 8.13 | CCCC[C@H](NC(=O)[C@@H]1CCCN1C(=O)CNC(=O)[C@H](CCCCN)NC(=O)[C@H](Cc1c[nH]cn1)NC(=O)[C@H](CO)NC(=O)[C@H](CC(C)C)N(C)C(=O)[C@H](CCCNC(=N)N)NC(=O)[C@@H]1CCCN1C(=O)[C@H](CCCNC(=N)N)NC(=O)[C@H](CCC(N)=O)NC(=O)[C@H](CCCNC(=N)N)NC(=O)[C@H](CCCNC(=N)N)NC(=O)[C@H](Cc1ccccc1)NC(=O)[C@H](CCCCN)NC(=O)CCOCCOCCOCCOCCOCCOCCOCCOC)C(=O)NC(C)(C)C(=O)N[C@@H](Cc1ccc(Br)cc1)C(=O)O ({CH3O(CH2CH2O)7C2H4CO}-KFRRQRPR[NMeL]SHKGP[Nle][Aib][Phe(4-Br)]-OH) | 30 | – | –
